Assay results: ChEMBL document CHEMBL6087484, “Discovery of Novel Small-Molecule Inhibitors Disrupting the MTDH-SND1 Protein-Protein Interaction” (J Med Chem, 2025)

Test system: MCF7
Test: Anti-proliferative activity against human MCF7 cells assessed as cell viability measured after 72 hrs by CCK8 assay
Conditions: MCF7, 72 h

SMILES	IC50 [µM]
O=S(=O)(Nc1cccc2cccnc12)c1cccc2cccnc12	0.901
COc1cc(NS(=O)(=O)c2cccc3cccnc23)c2ncccc2c1	2.35
O=S(=O)(Nc1cc(Cl)cc2cccnc12)c1cccc2cccnc12	1.17
O=S(=O)(Nc1cccc2cc(Br)cnc12)c1cccc2cccnc12	4.38
Cc1ccc2cccc(NS(=O)(=O)c3cccc4cccnc34)c2n1	> 10
COc1ccc(Cl)cc1S(=O)(=O)Nc1cccn2ncnc12	> 10
CC(C)N1CCN(c2ccc(NS(=O)(=O)c3cccc4cccnc34)c3ncccc23)CC1	6.42
O=S(=O)(Nc1cccc2cc(Nc3ccccc3)cnc12)c1cccc2cccnc12	> 10
O=S(=O)(Nc1ccc(Cl)c2cccnc12)c1cccc2cccnc12	2.89
O=S(=O)(Nc1ccc(Br)c2cccnc12)c1cccc2cccnc12	2.19
O=S(=O)(Nc1cc(Br)cc2cccnc12)c1cccc2cccnc12	2.11
